Active and inactive are the calls of the source. The calls are words filed in the database; no cut-off is given here.
What was measured:
[1] = target: T1, Ubiquitin carboxyl-terminal hydrolase 1/WD repeat-containing protein 48 (Homo sapiens) (UniProt O94782+Q8TAF3); assay: Inhibition of USP1-UAF1 complex (unknown origin) using Ub-7-amido-4-methylcoumarin as substrate at 10 uM incubated for 2 hrs by fluorescence based analysis relative to control; type: protein-complex assay
[2] = target: Ubiquitin carboxyl-terminal hydrolase 1/WD repeat-containing protein 48 (Homo sapiens, UniProt O94782); assay: Inhibition of USP1-UAF1 complex (unknown origin) using Ub-7-amido-4-methylcoumarin as substrate incubated for 2 hrs by fluorescence based analysis; type: protein-complex assay
Sequence of Ubiquitin carboxyl-terminal hydrolase 1/WD repeat-containing protein 48 (O94782 whole entry): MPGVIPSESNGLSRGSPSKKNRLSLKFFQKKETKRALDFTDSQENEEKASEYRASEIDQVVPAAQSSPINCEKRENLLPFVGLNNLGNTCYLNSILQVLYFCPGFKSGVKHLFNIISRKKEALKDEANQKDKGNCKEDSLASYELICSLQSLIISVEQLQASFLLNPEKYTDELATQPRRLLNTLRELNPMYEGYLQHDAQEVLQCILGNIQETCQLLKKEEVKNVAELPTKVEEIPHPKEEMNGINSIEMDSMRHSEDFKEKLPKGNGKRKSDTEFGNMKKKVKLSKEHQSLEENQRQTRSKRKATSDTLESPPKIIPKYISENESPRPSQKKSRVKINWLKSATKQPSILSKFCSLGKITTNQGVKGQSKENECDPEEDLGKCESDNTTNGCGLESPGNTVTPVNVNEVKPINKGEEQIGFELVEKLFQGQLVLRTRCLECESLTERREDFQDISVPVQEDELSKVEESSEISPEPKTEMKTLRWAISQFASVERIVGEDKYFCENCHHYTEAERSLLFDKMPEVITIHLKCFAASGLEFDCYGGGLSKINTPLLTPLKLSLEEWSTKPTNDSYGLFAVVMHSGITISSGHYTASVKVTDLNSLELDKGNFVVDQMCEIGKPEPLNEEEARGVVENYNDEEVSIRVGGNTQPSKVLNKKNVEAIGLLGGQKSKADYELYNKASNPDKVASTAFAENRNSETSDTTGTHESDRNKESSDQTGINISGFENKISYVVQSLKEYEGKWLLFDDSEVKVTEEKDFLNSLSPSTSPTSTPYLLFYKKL
Sequence of Ubiquitin carboxyl-terminal hydrolase 1/WD repeat-containing protein 48 (Q8TAF3 whole entry, further chain): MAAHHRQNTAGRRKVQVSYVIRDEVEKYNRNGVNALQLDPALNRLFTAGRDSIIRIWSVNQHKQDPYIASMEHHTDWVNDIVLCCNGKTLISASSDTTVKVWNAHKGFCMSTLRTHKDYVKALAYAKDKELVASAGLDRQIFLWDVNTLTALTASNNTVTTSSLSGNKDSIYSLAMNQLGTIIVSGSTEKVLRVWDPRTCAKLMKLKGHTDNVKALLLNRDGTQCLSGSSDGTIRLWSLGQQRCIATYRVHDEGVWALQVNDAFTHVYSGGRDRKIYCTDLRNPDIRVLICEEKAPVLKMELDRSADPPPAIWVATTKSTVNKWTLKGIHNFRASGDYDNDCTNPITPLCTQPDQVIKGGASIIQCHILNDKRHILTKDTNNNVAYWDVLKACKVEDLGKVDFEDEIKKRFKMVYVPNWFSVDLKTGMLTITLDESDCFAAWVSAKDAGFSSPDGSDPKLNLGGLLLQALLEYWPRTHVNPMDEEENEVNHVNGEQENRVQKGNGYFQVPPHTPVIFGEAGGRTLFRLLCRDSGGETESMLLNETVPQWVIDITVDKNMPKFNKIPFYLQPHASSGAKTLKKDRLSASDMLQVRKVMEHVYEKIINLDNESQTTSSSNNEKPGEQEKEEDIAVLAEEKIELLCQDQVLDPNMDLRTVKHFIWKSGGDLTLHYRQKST

[3] = system: NCI-H1299; assay: Inhibition of colony formation in human NCI-H1299 cells at 0.5 uM measured after 7 days by SRB staining based assay relative to control; type: functional; conditions: NCI-H1299, 168 h, time 7 day
[4] = system: MDA-MB-436; assay: Induction of cell cycle arrest in human MDA-MB-436 cells assessed as increase in cells at S phase at 1 uM incubated for 24 hrs by PI staining based flow cytometry analysis; type: functional
[5] = target: T1, Ubiquitin carboxyl-terminal hydrolase 1/WD repeat-containing protein 48 (Homo sapiens); conditions: NCI-H1299, dose 20-500 nM, time 24.0 hrs
[6] = system: Olaparib-resistant MDA-MB-436; assay: Inhibition of colony formation in human Olaparib-resistant MDA-MB-436 cell assessed as cell killing at 100 nM measured after 7 days by SRB staining based assay; type: functional; conditions: time 7.0 day

Row | Structure (SMILES) | IC50 [2] [nM] | further results
1 | COc1ncnc(C2CC2)c1-c1ncc2ccc(=O)n(Cc3ccc(-n4cccc4)cc3)c2n1 | – | inhibition [1]: 71.6%
2 | COc1cccc(F)c1-c1ncc2ccc(=O)n(Cc3ccc(-c4nc(C(F)(F)F)cn4C(C)C)cc3)c2n1 | 23.3 | –
3 | CC(C)n1cc(C(F)(F)F)nc1-c1ccc(Cn2c(=O)ccc3cnc(-c4c(Cl)cccc4Cl)nc32)cc1 | > 10000 | –
4 | COc1ncnc(C2CC2)c1-c1ncc2ccc(=O)n(Cc3ccc(-n4ccnc4)cc3)c2n1 | – | inhibition [1]: 56.9%
5 | COc1ccccc1-c1ncc2ccc(=O)n(Cc3ccc(-c4nc(C(F)(F)F)cn4C(C)C)cc3)c2n1 | > 10000 | –
6 | COc1ncccc1-c1ncc2ccc(=O)n(Cc3ccc(-c4nc(C(F)(F)F)cn4C(C)C)cc3)c2n1 | – | inhibition [1]: 63.9%
7 | CC(C)n1cc(C(F)(F)F)nc1-c1ccc(Cn2c(=O)ccc3cnc(-c4c(Cl)cnn4C(C)C)nc32)cc1 | > 10000 | –
8 | COc1ncnc(C2CC2)c1-c1ncc2ccc(=O)n(Cc3ccc(-n4nc(C(F)(F)F)cc4C)cc3)c2n1 | – | inhibition at 0.5 µM [3]: 70%; Activity [4]: Active; inhibition [5]: Dose-Dependent Effect
9 | CC(C)n1cc(C(F)(F)F)nc1-c1ccc(Cn2c(=O)ccc3cnc(-c4c(F)cccc4Cl)nc32)cc1 | > 10000 | –
10 | COc1ncnc(C2CC2)c1-c1ncc2ccc(=O)n(C(C)c3ccc(-c4nc(C(F)(F)F)cn4C(C)C)cc3)c2n1 (centres undefined) | 83.9 | –
11 | CC(C)c1ccccc1-c1ncc2ccc(=O)n(Cc3ccc(-c4nc(C(F)(F)F)cn4C(C)C)cc3)c2n1 | 33.9 | –
12 | CC(C)n1cc(C(F)(F)F)nc1-c1ccc(Cn2c(=O)ccc3cnc(-c4ccnn4C(C)C)nc32)cc1 | – | inhibition [1]: 56.6%
13 | COc1ncnc(C2CC2)c1-c1ncc2cnn(Cc3ccc(-c4nc(C(F)(F)F)cn4C(C)C)cc3)c2n1 | – | Activity [4]: Active
14 | COc1cc(-c2nc(C(F)(F)F)cn2C(C)C)ccc1Cn1c(=O)ccc2cnc(-c3c(OC)ncnc3C3CC3)nc21 | 319 | –
15 | COc1ncnc(C2CC2)c1-c1ncc2ccc(=O)n(Cc3ccc(-c4ccc(C(F)(F)F)cn4)cc3)c2n1 | > 10000 | –
16 | COc1ncnc(C2CC2)c1-c1ncc2ccc(=O)n(Cc3ccc(-n4ccnn4)cc3)c2n1 | – | inhibition [1]: 54.6%
17 | O=C(c1cc(Cc2n[nH]c(=O)c3ccccc23)ccc1F)N1CCN(C(=O)C2CC2)CC1 | – | inhibition [6]: inactive

Row | Structure (SMILES) | IC50 [2] [nM] | further results
18 | Cc1cnn(C(C)C)c1-c1ncc2ccc(=O)n(Cc3ccc(-c4nc(C(F)(F)F)cn4C(C)C)cc3)c2n1 | > 10000 | –
19 | CC(C)n1cc(C(F)(F)F)nc1-c1ccc(Cn2c(=O)ccc3cnc(-c4cccc5cnn(C)c45)nc32)cc1 | > 10000 | –
20 | CC(C)n1cc(C(F)(F)F)nc1-c1ccc(Cn2c(=O)ccc3cnc(-c4ccccc4OC(F)(F)F)nc32)cc1 | 39.8 | –
21 | COc1ncnc(C2CC2)c1-c1ncc2ccc(=O)n(Cc3ccc(-c4nc(C(F)(F)F)cn4CC4CC4)cc3)c2n1 | 11.2 | –
22 | COc1ncnc(C2CC2)c1-c1ncc2ccc(=O)n(Cc3ccc(-c4cccc(C(F)(F)F)n4)cc3)c2n1 | 59.9 | –
23 | Cc1ccccc1-c1ncc2ccc(=O)n(Cc3ccc(-c4nc(C(F)(F)F)cn4C(C)C)cc3)c2n1 | 511 | –
24 | CC(C)n1cc(C(F)(F)F)nc1-c1ccc(Cn2c(=O)ccc3cnc(-c4ccccc4C(F)(F)F)nc32)cc1 | 195 | –
25 | CC(C)n1cc(C(F)(F)F)nc1-c1ccc(Cn2c(=O)ccc3cnc(-c4ccn(C)n4)nc32)cc1 | > 10000 | –
26 | COc1ncnc(C2CC2)c1-c1ncc2ccc(=O)n(Cc3ccc(-c4nc(C(F)(F)F)cn4C(C)C)c(F)c3)c2n1 | 22.8 | –
27 | CC(C)n1cc(C(F)(F)F)nc1-c1ccc(Cn2c(=O)ccc3cnc(-c4cccc5ncsc45)nc32)cc1 | > 10000 | –
28 | CC(C)n1cc(C(F)(F)F)nc1-c1ccc(Cn2c(=O)ccc3cnc(-c4ccccc4Cl)nc32)cc1 | 729 | –
29 | CC(C)n1cc(C(F)(F)F)nc1-c1ccc(Cn2c(=O)ccc3cnc(-c4ccnn4C)nc32)cc1 | > 10000 | –
30 | Cc1cnn(C)c1-c1ncc2ccc(=O)n(Cc3ccc(-c4nc(C(F)(F)F)cn4C(C)C)cc3)c2n1 | > 10000 | –
31 | CC(C)n1cc(C(F)(F)F)nc1-c1ccc(Cn2c(=O)ccc3cnc(-c4ccccc4F)nc32)cc1 | 835 | –
32 | COc1cccc(OC)c1-c1ncc2ccc(=O)n(Cc3ccc(-c4nc(C(F)(F)F)cn4C(C)C)cc3)c2n1 | 18.8 | inhibition at 0.5 µM [3]: 70%; Activity [4]: Active; inhibition [5]: Dose-Dependent Effect
33 | COc1ncnc(C2CC2)c1-c1ncc2ccc(=O)n(Cc3c(F)cc(-c4nc(C(F)(F)F)cn4C(C)C)cc3F)c2n1 | 246 | –
34 | COc1ncnc(C2CC2)c1-c1ncc2ccc(=O)n(Cc3ccc(-c4nc(C(F)(F)F)cn4C(C)C)c(C)c3)c2n1 | – | inhibition [1]: 77.9%
